Reference: patent publication US20260042801A1, “COMPOSITIONS AND METHODS FOR DYE-BOUND CYCLIZED PEPTIDES FOR MEDICAL USE” (The Texas A&M University System, priority 2022, published 2026)

Columns and labels:
Synapsin I = assay: Astrocyte Synapsin I staining (fluorescent intensity); assay type: cell-based, mouse; conditions: astrocytes from 6-month-old male mice, 5 μM, 3 days
Experimental: FIGS. 4A-4D: 5c(i) induces Synapsin I production and reduces C3 and GSK-3s expression from astrocytes promoting neuron survival and neurite growth. Primary adult cortical astrocytes from 6-month-old male mice were incubated with 5 μM 5c(i) for 3 days. Graph represents mean±SEM of percent change in fluorescent intensity (Synapsin I and C3) or chemiluminescence (GSK-3β) relative to Vehicle (4A and 4D). Images represent the 4B) Vehicle and 4C) 5 μM 5c(i) treated groups stained with Synapsin I and DAPI. D) Cortical astrocytes from 6-month-old male mice were plated and treated with 5c(i) or Vehicle for 2 days. Cells were then washed and cortical neurons from 6-month-old male mice were added on top of the astrocytes. […] Scale bar=50 μm.
To determine if 5c(i) can modulate astrocytes, adult astrocytes from 6-month-old male mice were treated with 5c(i) for 3 days and stained with Synapsin I and C3 to measure changes in fluorescent intensity or western blot was conducted on the cell lysate to assess changes in GSK-3β expression (FIG. 4). […] To determine if 5c(i) treated astrocytes can directly benefit neuronal recovery, astrocytes were cultured with 5c(i) for 2 days before removing 5c(i) from the culture and plating adult neurons on top of the astrocytes for 2DIV, resulting in increased neuron survival and neurite growth. […]

[1] = tested on: severe T8 contusion/compression SCI; assay: Preclinical SCI model: Novel Object Recognition (NOR); assay type: in vivo, mouse; conditions: 7 weeks post injury, 24-hr interval
Experimental: 8-week-old male mice with a severe T8 contusion/compression SCI were injected IP daily with 5c(i) for 7 weeks (5 and 25 mg/kg/day). 7 weeks post injury, NOR was conducted. 10A) The total number of independent visits to novel object. 10B) Latency to visit novel object. 10C) The ratio of time spent with objects (novel/familiar ratio). […] N=6-8. Graphs show mean and SEM. # (p<0.1) * (p<0.05) ** (p<0.01) *** (p<0.001) **** (p<0.0001). Student's T-test.
Male mice at 8 weeks of age underwent surgery to sustain an SCI. The spinalis thoracis muscle was lacerated to perform a laminectomy at T7-T9 to expose the spinal cord while keeping the dura intact. The mice were then clamped using 2 pairs of Adson forceps before using the Infinite Horizon Impactor at 50 kdyn of force (the contusion) with a 2 second dwell time (the compression) to induce a severe T8 contusion and compression. Self-degrading Catgut sutures were utilized for the closure of the spinalis thoracis muscle before the skin was glued shut with 3M VETBOND™ (n-butyl cyanoacrylate adhesive veterinary tissue adhesive) Tissue Adhesive. All procedures and instruments used for surgery were sterilized prior to surgery to prevent infections. After surgery, mice recovered in a warmed cage and then moved to a cage set at room temperature provided with food and water ad libitum. All surgeries were performed in the morning (8 am-12 pm) to limit potential circadian clock impact. Behavioral assays were performed at the same time in the morning for all the cohorts for the same reason. For the administration of pharmaceutical agents, the vehicle was 0.6 mL/kg of 100% dimethyl sulfoxide (DMSO). 5c(i) (at 5 and 25 mg/kg/day) diluted in vehicle or vehicle alone was administered once daily through intraperitoneal (IP) injections at a volume of 0.6 mL/kg/day. […]
7 weeks after SCI, all post injury cognitive testing was conducted. Novel Object Recognition (NOR): Mice were placed in the empty open field white box for 5 min and recorded. […] Behavioral patterns with respect to the novel and familiar objects was recorded and analyzed. […]

[2] = tested on: severe T8 contusion/compression SCI; assay: Preclinical SCI model: liver Masson's trichrome collagen deposition; assay type: in vivo, mouse; conditions: 7 weeks post injury
Experimental: N=6-8. […] Student's T-test.
Mice were sacrificed 7 weeks after injury by a lethal dose of Fatal plus (pentobarbital), then, transcardial perfusion was performed with PBS-Heparin (10,000 unit/L, 20 mL, 5 mL/min) followed by a 4% paraformaldehyde fixative solution (30 mL/mouse, at 5 mL/min). Right after perfusion, tissues were immersed in 4% PFA for 24 hours, transferred to 15% sucrose for 24 hours, then transferred to 30% sucrose for 24 hours before being embedded. Subsequently, the spinal cords (at injury site±1 mm) were cut into 25 μm-thick transverse sections using a freezing microtome (THERMO FISHER SCIENTIFIC® (laboratory reagents), Microm HM550). […] The images were acquired using VS120 Virtual Slide Microscope (Olympus) and Axio Observer 7 (ZEISS® (optical products)) and analyzed with QuPath 0.4.3. […] The lesion size was measured by tracing the glial scar border labeled with GFAP surrounding a DAPI^+ inner region. Cavity size was measured by measuring the region within the spinal cord without any visible nuclei yet surrounded by GFAP labeled glial scar. Three spinal cord sections per animal were imaged and analyzed. […] Images were quantified using QuPath software. […] Collagen accumulation was quantified using automated QuPath software to determine the extent of fibrosis.

Substance: C-DIRG-C BODIPY® (fluorescent dye) [5c(i)]
- Synapsin I production (Synapsin I): significant increase
- latency to visit novel object [1]: reduced latency to visit
- preference for the novel object [1]: increased preference
- visits to novel object [1]: more visits
- liver collagen deposition [2]: alleviated
